Like-named read-outs stand apart in the source and are kept apart here.
Key:
HCN1 channels [1] = target: T1, HCN1 channels (Mus musculus, UniProt O88704); test: Additivity/competition of ligands with 3 μM DTB-P on HCN1 gating; assay type: cell-based, murine; conditions: increasing ligand concentrations plus 3 μM DTB-P
murine HCN1 channels = murine HCN1 channels (Mus musculus, UniProt O88704); assay type: cell-based; conditions: for Inverse agonist behavior on HCN1 gating (in words): ligand alone; for IC50 (in words): no clear inflection in the concentration response curve, omitted from Figure 4B; for ΔV1/2: paired experiments
[2] = cited from earlier work
HCN1 channels [3] = target: T1, HCN1 channels; test: Gating model; assay type: cell-based, murine; conditions: for Fold Change of closed state association constant, phenol vs cyclohexanol / Fold Change of open state association constant, phenol vs cyclohexanol / Association constant to closed channels (KC, QC, JC) / Association constant to open channels (KO, QO, JO): common site model S=4; for Association constant to closed channels (KC, QC, JC) / Association constant to open channels (KO, QO, JO): constants and errors divided by 10^4
[4] = system: G-protein coupled inwardly rectifying K+ channels (GIRKs); conditions: in vitro; cited from earlier work
[5] = system: mouse peripheral nerve injury neuropathic pain models; conditions: cited from earlier work
[6] = system: chimeric mu opiate (μOR-Gqi5) receptors; conditions: up to 100 μM; cited from earlier work
GABAA receptors = conditions: cited from earlier work
α3β glycine receptors = conditions: cited from earlier work
[7] = Hill fit maximal shift of activation midpoint, mean ± SD

murine HCN1 channels, sequence (O88704 whole entry): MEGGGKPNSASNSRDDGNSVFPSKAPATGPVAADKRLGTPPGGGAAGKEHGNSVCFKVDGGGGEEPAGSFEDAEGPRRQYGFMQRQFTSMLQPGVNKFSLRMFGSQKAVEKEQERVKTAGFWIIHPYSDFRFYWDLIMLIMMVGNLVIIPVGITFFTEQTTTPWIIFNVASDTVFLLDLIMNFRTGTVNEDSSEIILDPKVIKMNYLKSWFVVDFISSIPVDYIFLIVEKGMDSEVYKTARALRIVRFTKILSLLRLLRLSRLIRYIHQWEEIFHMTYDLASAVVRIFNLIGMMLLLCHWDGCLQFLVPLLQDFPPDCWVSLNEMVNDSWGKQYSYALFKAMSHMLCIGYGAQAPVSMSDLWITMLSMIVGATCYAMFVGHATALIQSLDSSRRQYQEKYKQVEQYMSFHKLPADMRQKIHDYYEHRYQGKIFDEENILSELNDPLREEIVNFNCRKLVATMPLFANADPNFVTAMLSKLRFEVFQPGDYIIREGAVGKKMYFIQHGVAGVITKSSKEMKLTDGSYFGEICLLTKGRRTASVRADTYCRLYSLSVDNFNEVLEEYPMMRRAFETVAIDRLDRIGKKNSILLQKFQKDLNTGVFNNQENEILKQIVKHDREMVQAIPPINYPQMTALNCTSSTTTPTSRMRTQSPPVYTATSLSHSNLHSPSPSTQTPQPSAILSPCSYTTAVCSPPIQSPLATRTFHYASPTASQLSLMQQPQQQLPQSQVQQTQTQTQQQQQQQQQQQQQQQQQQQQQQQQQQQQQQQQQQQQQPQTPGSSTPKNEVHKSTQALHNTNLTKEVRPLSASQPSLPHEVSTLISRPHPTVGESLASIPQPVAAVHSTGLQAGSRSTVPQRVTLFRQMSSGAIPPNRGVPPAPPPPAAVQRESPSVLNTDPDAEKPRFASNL
T1 sequence (O88704 whole entry): as above

CCC1CCCC(CC)C1O (stereo not drawn) [DE-CH, 2,6-di-ethyl cyclohexanol]
Behavior in the presence of 3 μM DTB-P (in words) (HCN1 channels [1]): neither additivity nor competition | IC50 (murine HCN1 channels): 3000 ± 723 µM | Inverse agonist behavior on HCN1 gating (in words) (murine HCN1 channels): only weakly effective as an inverse agonist | IC50 (in words) (murine HCN1 channels): ill-defined

CCc1cccc(CC)c1O [DE-P, 2,6-di-ethyl phenol]
Aqueous solubility limit ([2]; ref https://comptox.epa.gov/dashboard DTXSID5061401): ~ 10 mM | Maximal efficacy lower than the maximal effect of DIP-P and DTB-P (murine HCN1 channels): ~ 2 fold | ΔV1/2 (murine HCN1 channels; 100 μM, n = 8): −21.6 mV | ΔV1/2 (murine HCN1 channels; 300 μM, n = 9): −21.2 mV | ΔV1/2 max (murine HCN1 channels; [7]): −22.1 ± 1.0 mV | h (Hill coefficient) (murine HCN1 channels; Hill fit, mean ± SD): 1.95 ± 0.44 | IC50 (murine HCN1 channels; IC50, Hill fit of ΔV1/2 vs concentration, all parameters free, mean ± SD): 25.1 ± 2.7 µM | Inverse agonist behavior on HCN1 gating (in words) (murine HCN1 channels): partial inverse agonist

CCc1cccc(CC)c1N=C=O [DE-PIC, 2,6-diethyl phenyl-isocyanate]
Inverse agonist behavior on HCN1 gating (in words) (murine HCN1 channels): effective

CC(C)C1CCCC(C(C)C)C1O (stereo not drawn) [DIP-CH, 2,6-di-iso-propyl cyclohexanol]
Behavior in the presence of 3 μM DTB-P (in words) (HCN1 channels [1]): partial inverse agonists | Fold Change of closed state association constant, phenol vs cyclohexanol (HCN1 channels [3]): 3.8 | Fold Change of open state association constant, phenol vs cyclohexanol (HCN1 channels [3]): 1.8 | IC50 (murine HCN1 channels): 35 ± 21 µM | ΔV1/2 max (murine HCN1 channels; [7]): −18.9 ± 3.4 mV | h (Hill coefficient) (murine HCN1 channels; Hill fit, mean ± SD): 0.76 ± 0.19

CC(C)c1cccc(C(C)C)c1O [DIP-P, 2,6-di-iso-propyl phenol, reference compound]
Direct effect on GIRKs [4]: no direct effect | Behavior in the presence of 3 μM DTB-P (in words) (HCN1 channels [1]): second full inverse | Anti-hyperalgesia [5]: mechanical and thermal anti-hyperalgesia | Effect on DAMGO-evoked currents generated by μOR-Gqi5 receptors [6]: inhibit | Increase of solubility by 2-hydroxypropyl-β-cyclodextrin (HPβCD) [2]: ≥ 200 fold | Shift in the V1/2 of HCN1 gating (murine HCN1 channels): ~ −40 mV | h (Hill coefficient) (murine HCN1 channels): 0.85 ± 0.11 | ΔV1/2 max (murine HCN1 channels): −39.8 ± 2.3 mV | IC50 (murine HCN1 channels; IC50): 5.8 ± 1.2 µM

CC(C)c1cccc(C(C)C)c1F [DIP-PF, 2,6-di-iso-propyl phenyl-fluorine]
IC50 (murine HCN1 channels): 267 ± 24 µM | Destabilization of association on replacing OH with F (murine HCN1 channels; from observed IC50 ratio): 2.3 kcal/mol | Destabilization of association on replacing OH with F (murine HCN1 channels; from partition-corrected IC50 ratio): 4.5 kcal/mol | Shift in IC50 on replacing OH with F (murine HCN1 channels; ratio of observed aqueous IC50s of DIP-P and DIP-PF): 46 fold | Shift in IC50 on replacing OH with F (murine HCN1 channels; ratio of partition-corrected IC50s of DIP-P and DIP-PF): 1,870 fold

CC1CCCC(C)C1O (stereo not drawn) [DM-CH, 2,6-di-methyl cyclohexanol]
IC50 (in words) (murine HCN1 channels): ill-defined

Cc1cccc(C)c1O [DM-P, 2,6-di-methyl phenol]
Inverse agonist behavior on HCN1 gating (in words) (murine HCN1 channels): ineffective | IC50 (in words) (murine HCN1 channels): ill-defined

Cc1cccc(C)c1N=C=O [DM-PIC, 2,6-di-methyl phenyl-isocyanate]
Inverse agonist behavior on HCN1 gating (in words) (murine HCN1 channels): ineffective | IC50 (in words) (murine HCN1 channels): ill-defined

Cc1cccc(C)c1S [DM-PT, 2,6-di-methyl phenyl-thiol]
Inverse agonist behavior on HCN1 gating (in words) (murine HCN1 channels): clear inverse agonist activity

CCC(C)C1CCCC(C(C)CC)C1O (stereo not drawn) [DSB-CH, 2,6-di-sec-butyl cyclohexanol]
Association constant to closed channels (KC, QC, JC) (HCN1 channels [3]): no effect | Association constant to open channels (KO, QO, JO) (HCN1 channels [3]): no effect | IC50 (in words) (murine HCN1 channels): ill-defined

CCC(C)c1cccc(C(C)CC)c1O (stereo not drawn) [DSB-P, 2,6-di-sec-butyl phenol]
Behavior in the presence of 3 μM DTB-P (in words) (HCN1 channels [1]): low affinity full inverse agonist | Jc^I closed state association constant (HCN1 channels [3]; common site model S=4, fit of data without and with 3 μM DTB-P, not scaled): 3,696 ± 2,948

CC(C)(C)C1CCCC(C(C)(C)C)C1O (stereo not drawn) [DTB-CH, 2,6-di-tert-butyl cycloxhexanol]
Behavior in the presence of 3 μM DTB-P (in words) (HCN1 channels [1]): partial inverse agonists | Fold Change of closed state association constant, phenol vs cyclohexanol (HCN1 channels [3]): 5.4 | Fold Change of open state association constant, phenol vs cyclohexanol (HCN1 channels [3]): 1.8 | Association constant to closed channels (KC, QC, JC) (HCN1 channels [3]): 4.6 ± 2.0 | Association constant to open channels (KO, QO, JO) (HCN1 channels [3]): 3.1 ± 1.5 | ΔV1/2 max (murine HCN1 channels; [7]): −9.9 ± 1.5 mV | IC50 (murine HCN1 channels; Hill fit of ΔV1/2 vs concentration, all parameters free, mean ± SD): 11.4 ± 4.2 µM | h (Hill coefficient) (murine HCN1 channels; Hill fit, mean ± SD): 1.28 ± 0.47

CC(C)(C)c1cccc(C(C)(C)C)c1O [DTB-P, 2,6-di-tert-butyl phenol]
Activity at GABAA receptors (GABAA receptors): minimal activity | Anti-hyperalgesia [5]: mechanical and thermal anti-hyperalgesia | Effect on open channel probability (Po) of α3β glycine receptors (α3β glycine receptors): increases open channel probability | Increase of solubility by 2-hydroxypropyl-β-cyclodextrin (HPβCD) [2]: ≥ 200 fold | IC50 (murine HCN1 channels): 4.8 ± 0.8 µM | ΔV1/2 max (murine HCN1 channels; [7]): −42.4 ± 2.8 mV | h (Hill coefficient) (murine HCN1 channels; Hill fit, mean ± SD): 0.97 ± 0.13 | Shift in the V1/2 of HCN1 gating (murine HCN1 channels; at the highest concentrations): ~ −40 mV
